Values joined by “and” are separate entries in the source; they are usually repeats but may differ in a detail not shown here. Equal values may be shown once. Numbered stars: 1 amine (or outer) side, 2 acyl side, 3 side chain; on linkers, the order of the positions; unused ones are H or OH. Bridge positions count the residues as written; N and C are the ends. Square brackets hold non-standard residues; d marks the D form. Peptide text beside a SMILES is read from it. I, II: the chains in the order shown. Actinocin(9to1) = Cc1c2oc3c(C)ccc(C(=O)[*:1])c3nc-2c(C(=O)[*:2])c(N)c1=O; NMeV = CN[C@H](C(=O)O)C(C)C; Sar = CNCC(=O)O Some results are limits rather than exact numbers.

The conditions of the data set: pampa; 60.0 min; 50.0 µM.
Turning to `C[C@@]12CCCCC[C@@H](Cc3ccc(O)cc31)[C@H]2N`, the Papp – broadly, a coefficient for how fast a substance crosses the barrier – worked out at 74 ×10⁻⁶ cm/s.
In the case of `CCC1C(C)=NN=C(c2ccc(OC)c(OC)c2)c2cc(OC)c(OC)cc21` (stereo unspecified), the apparent permeability coefficient (Papp) is 91 ×10⁻⁶ cm/s.
`Cc1[nH]c2ccccc2c1CCNCc1ccc(C=CC(=O)NO)cc1` yielded an apparent permeability (Papp) of under 1 ×10⁻⁶ cm/s.
In the case of `CO[C@H]1/C=C\C=C(\C)C(=O)NC2=CC(=O)C(NCCN(C)C)=C(C[C@@H](C)C[C@H](OC)[C@H](O)[C@@H](C)/C=C(/C)[C@@H]1OC(N)=O)C2=O`, the apparent permeability coefficient (Papp) stood at 11.9 ×10⁻⁶ cm/s.
`Cn1nnnc1Sc1ncnc2scc(-c3ccc4c(c3)OCO4)c12` displayed a Papp of 240 ×10⁻⁶ cm/s.
As to `COC(=O)c1ccccc1O[C@@H]1O[C@H](CO[C@@H]2OC[C@@H](O)[C@H](O)[C@H]2O)[C@@H](O)[C@H](O)[C@H]1O`, the Papp is under 1 ×10⁻⁶ cm/s.
The compound `Cc1onc(-c2ccccc2)c1C(=O)N[C@@H]1C(=O)N2[C@@H]1SC(C)(C)[C@@H]2C(=O)O` displayed a Papp of 8 ×10⁻⁶ cm/s.
Next, `Cn1c(CCCCCCC(=O)NO)nc2cc(N(CCCl)CCCl)ccc21`: under 1 ×10⁻⁶ cm/s; `CC[C@@]1(O)C(=O)OCc2c1cc1n(c2=O)Cc2cc3ccccc3nc2-1`: 23 ×10⁻⁶ cm/s.
The compound `N#Cc1cccc(-c2nc(-c3cccnc3)no2)c1` yielded a Papp of 150 ×10⁻⁶ cm/s.
`C[C@@H](O)[C@H]1C(=O)N2C(C(=O)O)=C([C@H]3CCCO3)S[C@H]12` returned a Papp of under 1 ×10⁻⁶ cm/s.
Next, `Cc1c2oc3c(C)ccc(C(=O)N[C@@H]4C(=O)N[C@H](C(C)C)C(=O)N5CCC[C@H]5C(=O)N(C)CC(=O)N(C)[C@@H](C(C)C)C(=O)O[C@@H]4C)c3nc-2c(C(=O)N[C@@H]2C(=O)N[C@H](C(C)C)C(=O)N3CCC[C@H]3C(=O)N(C)CC(=O)N(C)[C@@H](C(C)C)C(=O)O[C@@H]2C)c(N)c1=O` (I: T[dV]P[Sar][NMeV] / II: T[dV]P[Sar][NMeV]; ester I:1-I:C, II:1-II:C; linker I:N-II:N via Actinocin(9to1)): 6 ×10⁻⁶ cm/s and 13 ×10⁻⁶ cm/s; `N=c1c2c(-c3ccccc3)cn(Cc3ccccc3)c2ncn1[C@H](CO)Cc1ccccc1`: 22 ×10⁻⁶ cm/s.
Next, `COCCN(C)Cc1ccc2nc3sc(C(=O)N(C)C4CCCCC4)cn3c2c1`: 79 ×10⁻⁶ cm/s.
Next, `COc1ccc(Cn2c(-c3ccccc3)c(-c3ccccc3)c3c(=N)n(CCCCO)cnc32)cc1`: 279 ×10⁻⁶ cm/s.
`COC(Cn1cnc2c(c(-c3ccccc3)c(-c3ccccc3)n2Cc2ccccc2)c1=N)OC` showed an apparent permeability coefficient (Papp) of 189 ×10⁻⁶ cm/s.
Compound `NC(=O)c1cccc(-c2cc(O)cc(OC(=O)NC3CCCCC3)c2)c1` registered an apparent permeability (Papp) of 6 ×10⁻⁶ cm/s.
As to `C=CCNC1=C2C[C@@H](C)C[C@H](OC)[C@H](O)[C@@H](C)/C=C(\C)[C@H](OC(N)=O)[C@@H](OC)/C=C\C=C(/C)C(=O)NC(=CC1=O)C2=O`, the Papp is 73 ×10⁻⁶ cm/s.
Consider `COc1cc(/C=C/C(=O)NCCn2c(C(F)(F)F)cc3ccccc32)cc(OC)c1OC`, for which the apparent permeability (Papp) is over 300 ×10⁻⁶ cm/s.
Take `CN1CCN(c2ccc(C(=O)Nc3n[nH]c4ccc(Cc5cc(F)cc(F)c5)cc34)c(NC3CCOCC3)c2)CC1`: the Papp was 113 ×10⁻⁶ cm/s.
Consider `CCN(CC)CCCN(c1ccccc1)C1Cc2ccccc2C1`, for which the apparent permeability coefficient (Papp) worked out at 125 ×10⁻⁶ cm/s.
Compound `COc1ccc(Cl)cc1NC(=O)c1sc2nc3c(cc2c1N)N1CCC3CC1` showed an apparent permeability coefficient (Papp) of under 1 ×10⁻⁶ cm/s.
`Cn1nnnc1Sc1ncnc2scc(-c3ccc(C(F)(F)F)cc3)c12` yielded a Papp of over 300 ×10⁻⁶ cm/s.
`CC[C@@H]1CN(C(=O)NCC(F)(F)F)C[C@@H]1c1cnc2cnc3[nH]ccc3n12` had an apparent permeability (Papp) of 2 ×10⁻⁶ cm/s.
Compound `Cc1onc(-c2c(Cl)cccc2Cl)c1CC(=O)NCc1ccc(OCC(F)(F)F)nc1` showed a Papp of 204 ×10⁻⁶ cm/s.
As for `N=c1c2c(-c3ccccc3)c(-c3ccccc3)n(CCc3ccccc3)c2ncn1CCCCCO`, the Papp was 183 ×10⁻⁶ cm/s.
The compound `CON=C(C(=O)N[C@@H]1C(=O)N2C(C(=O)O)=C(Cn3ccc(=N)n3CCO)CS[C@H]12)c1csc(N)n1` had a Papp of under 1 ×10⁻⁶ cm/s.
Take `NNC(=O)c1ccncc1`: the Papp came to 3 ×10⁻⁶ cm/s.
Next, `c1ccc(CNCCNCc2ccccc2)cc1`: 107 ×10⁻⁶ cm/s; `O=C(Nc1ccc2[nH]c(=O)oc2c1)C(=O)N1CCC(Cc2ccc(F)cc2)CC1`: 207 ×10⁻⁶ cm/s.
As to `C[N+](C)([O-])CCNc1ccc(NCC[N+](C)(C)[O-])c2c1C(=O)c1c(O)ccc(O)c1C2=O`, the Papp amounted to 40 ×10⁻⁶ cm/s.
On to `CCN(CC)CCNc1ccc(C)c2sc3ccccc3c(=O)c12`, for which the Papp was over 300 ×10⁻⁶ cm/s.
The compound `CCC(=O)O[C@@H](OP(=O)(CCCCc1ccccc1)CC(=O)N1C[C@H](C2CCCCC2)C[C@H]1C(=O)O)C(C)C` (stereo partly specified) had an apparent permeability coefficient (Papp) of 118 ×10⁻⁶ cm/s.
As to `COc1ccccc1NC(=O)C1=C(C)Nc2c(C(=O)Nc3ccc(F)cc3)cnn2C1c1ccc(Cl)cc1` (stereo unspecified), the Papp was under 1 ×10⁻⁶ cm/s.
The figure for `CCN(CC)CCCC(C)Nc1ccnc2cc(Cl)ccc12` (stereo unspecified) is 8 ×10⁻⁶ cm/s; for `COc1ccc(-n2nc(C(F)F)cc2-c2ccc(S(C)=O)cc2)cc1` (stereo unspecified) it is 115 ×10⁻⁶ cm/s.
`c1ccc(Nc2nc3c(s2)CCCc2[nH]ncc2-3)nc1` yielded an apparent permeability coefficient (Papp) of 194 ×10⁻⁶ cm/s.
For `CC(=O)O[C@H]1C[C@@H](C)O[C@H]2O[C@@H]3CC4CC[C@@H]5C(CC[C@]6(C)[C@@H](C7=CC(=O)OC7)CC[C@]56O)[C@@]4(C=O)C[C@H]3O[C@]21O` (stereo partly specified), the Papp is 54 ×10⁻⁶ cm/s.
The compound `CC(C)CNc1ccnc(NCc2csc(-c3ccccc3)n2)n1` yielded an apparent permeability (Papp) of 228 ×10⁻⁶ cm/s.
The figure for `C[C@]12CCCN1CC1=NNC(=O)c3cc(F)cc4[nH]c2c1c34` is 22 ×10⁻⁶ cm/s; for `Cc1[nH]c(/C=C2\C(=O)Nc3ccc(F)cc32)c(C)c1C(=O)NC[C@H](O)CN1CCOCC1` it is 42 ×10⁻⁶ cm/s.

The record behind these values is PubChem BioAssay AID1845228.
